What was measured:
[1] = test system: C57BL/6 mice in the AOM-DSS model; assay: AOM-DSS model of colitis-associated carcinoma (tumors, dysplasia, body weight); assay type: in vivo
Description: FIGS. 5A, 5B, 5C, 5D, 5E, 5F, and 5G show mice (n=10-12/group)±AOM-DSS±1.5 mg/ml EtHOBA. (A) Body weight; ″P<0.05 compared to AOM-DSS-treated mice. (B) Tumor number. (C) Average tumor size per mouse. (D) Tumor burden. (E) Number of adenomas. (F) Frequency of diagnoses; ND, no dysplasia. (G) H&E staining; each arrow depicts a tumor. Scale bar, 50 μm.
Animals receive an i.p. injection of the carcinogen AOM (12.5 mg/kg) followed by 3 cycles of 4% DSS, each for 4 days, over a total of 56-77 days. To directly determine the role of electrophiles in colon carcinogenesis, the present inventors tested the effect of EtHOBA in C57BL/6 mice in the AOM-DSS model. Mice were given 1.5 mg/ml EtHOBA one day after AOM and continued throughout the experiments, except during the DSS cycles, to avoid mixing. The present inventors assessed electrophiles in colons of mice treated with AOM-DSS, by IHC for electrophile protein adducts. […] In total, without the scavenger treatment, 25% of mice had HGD and the remaining 75% had L GD; in contrast, in those receiving EtHOBA, 20% had no dysplasia, none had HGD, and 80% had only L GD, a significant overall difference in diagnoses (FIGS. 5F-G).

[2] = test system: LG-histone adducts in RAW264.7 cells; assay: LG-lysyl adduct formation on histones in RAW264.7 cells (LC/ESI/MS/MS); assay type: cell-based, mouse
Description: FIGS. 11A, 11B, 11C, 11D, 11E, and 11F are a series of graphs showing that LG-lysine adducts of histones are found in cells and tissue, dependent on COX-2 activity. RAW264.7 mouse macrophage (A) and A549 human lung carcinoma (C) cells were stimulated to express COX-2, then given 20 μM arachidonic acid (AA) or vehicle. A subgroup of cells was preincubated 45 min with 50 μM indomethacin. As a measure of COX activity, PGE2 was determined by GC/MS from cell media prior to lysis (B and D). Nuclei were isolated, and histones were extracted and digested to individual amino acids prior to LC/EST/MS/MS analysis. *, p<0.05; ***, p<0.001 by ANOVA followed by Tukey's post-test (n≥5). (E). Histones were extracted from nuclei of rat liver, and analyzed as above for LG-lactam adduct. COX-2 protein was analyzed by Western blotting and plotted against lactam adduct levels. Each point corresponds to 1 liver, and shown is the line of regression (r^2=0.7237). Pearson r=0.8507; two-tailed p=0.0152. (F) LC-MS chromatograph of histones isolated from a rat liver with relatively high COX-2 expression (COX-2 band intensity of 117 arbitrary units).
(A). Scavengers were screened in RAW264.7 cells for the ability to decrease LG adduct formation on histones. Scavengers used were glucosamine (GA), 3-methoxysalicylamine (3-MoSA), pentylpyridoxamine (PPM), and 5-ethylsalicylamine (EtSA). Cells were stimulated to express COX-2, pretreated 45 min. with 500 μM scavenger or vehicle (H2O), and given 20 μM AA for 1 h before lysing and extracting histones. Histone proteins were analyzed by LC/ESI/MS/MS for LG-lysyl lactam adduct, n=2. (B) Stimulated A549 cells were pretreated with 30, 300, or 1000 μM EtSA prior to 1 h with 20 μM AA, and histones analyzed for LG-lysyl adduct. *, p<0.05 by one-way ANOVA followed by Dunnett's multiple comparisons post-test (n=3-5). (C). A549 cells were stimulated, pretreated 45 min. with 1000 μM EtSA or H2O vehicle, and given 20 μM AA for 1 h. Media was analyzed by GC/MS for PGE2 (n=3). There was no effect on PGE2 production at lower doses of EtSA (data not shown).
To stimulate COX-2 expression, A549 or RAW264.7 cells were treated overnight with 5 ng/mL IL-1B (A549) or 10 μg/mL LPS and 10 U/mL IFNγ (RAW264.7) in serum-free medium. When indicated, cells were pretreated with indomethacin, aldehyde scavengers (glucosamine, 3-MoSA, PPM or EtSA), or vehicle (ethanol for indomethacin, H2O for scavengers) for 45 min, and then given 20 μM arachidonic acid (AA) or DMSO vehicle for 1 h before lysing.
Cultured cells were lysed in hypotonic buffer (10 mM Tris/10 mM NaCl/3 mM MgCl2) containing 1 mM pyridoxamine and 100 μM indomethacin to prevent the artifactual formation of LGE2 during the lytic process. […] Protein concentration was determined using the method of Bradford. […]

LG-protein adducts = assay: IHC for LG-protein adducts in colons of AOM-DSS mice; assay type: in vivo, C57BL/6 mice; conditions: 1.5 mg/ml EtHOBA
Excerpt: The present inventors performed immunohistochemistry (IHC) staining using the single chain antibody (Ab) D11, which specifically binds to L G-protein adducts, and a tissue microarray (TMA) from VUMC that contains colon tissues from patients with ulcerative colitis (UC), and associated precancerous and cancerous lesions. Histopathologic diagnoses were established from clinical case material from surgical resections and confirmed by H&E staining of the TMA. High levels of L G-protein adducts were present in active colitis, dysplasia, and carcinoma compared to normal patients (FIG. 2). On the TMA, 7/9 (78%) high grade dysplasia (HGD) cores and 21/23 (91%) CAC cores were scored positive for L G adducts.
Animals receive an i.p. injection of the carcinogen AOM (12.5 mg/kg) followed by 3 cycles of 4% DSS, each for 4 days, over a total of 56-77 days. To directly determine the role of electrophiles in colon carcinogenesis, the present inventors tested the effect of EtHOBA in C57BL/6 mice in the AOM-DSS model. Mice were given 1.5 mg/ml EtHOBA one day after AOM and continued throughout the experiments, except during the DSS cycles, to avoid mixing. The present inventors assessed electrophiles in colons of mice treated with AOM-DSS, by IHC for electrophile protein adducts. […]

[3] = AOM-DSS, 1.5 mg/ml EtHOBA vs AOM-DSS alone

CCc1ccc(O)c(CN)c1 [EtHOBA, 5-ethyl-2-hydroxybenzylamine]
mice with high grade dysplasia (HGD) ([1]; AOM-DSS + EtHOBA, without scavenger 25%): none | mice with only low-grade dysplasia (LGD) ([1]; AOM-DSS + EtHOBA, without scavenger 75%): 80% | mice with no dysplasia ([1]; AOM-DSS + EtHOBA, without scavenger all mice had dysplasia): 20% | Tumor number [1, 3]: significantly less tumors | body weight loss at each cycle of DSS [1, 3]: less weight loss | number of histologic adenomas [1, 3]: reduced number | total tumor burden [1, 3]: lower | tumor size [1, 3]: lower tumor size | body weight in control mice ([1]; control mice treated for 56 days, 1.5 mg/ml EtHOBA): no change in body weight | potency in protecting histones from modification by levuglandins ([2]; in comparison with salicylamine, pyridoxamine and their other analogues): most potent | LG adduct formation on histones ([2]; stimulated RAW264.7, 500 μM scavenger 45 min, 20 μM AA 1 h): most effectively blocked | LG-protein adducts (IHC staining) (LG-protein adducts): marked attenuation

— patent US11696903B2, “Compounds and methods for scavenging dicarbonyl electrophiles” (VANDERBILT UNIVERSITY, priority 2019, dated 2023)
